Assay results taken from patent US12545658B2, “Pyridine derivatives as calcium-activated chloride channel modulators” (TMEM16A LIMITED, priority 2019, dated 2026).

Biological target: T1, human TMEM16A (TMEM16Aabc variant) (Homo sapiens, UniProt Q5XXA6)
T1 construct: human TMEM16A (TMEM16Aabc variant)
T1 sequence (Q5XXA6 1-986): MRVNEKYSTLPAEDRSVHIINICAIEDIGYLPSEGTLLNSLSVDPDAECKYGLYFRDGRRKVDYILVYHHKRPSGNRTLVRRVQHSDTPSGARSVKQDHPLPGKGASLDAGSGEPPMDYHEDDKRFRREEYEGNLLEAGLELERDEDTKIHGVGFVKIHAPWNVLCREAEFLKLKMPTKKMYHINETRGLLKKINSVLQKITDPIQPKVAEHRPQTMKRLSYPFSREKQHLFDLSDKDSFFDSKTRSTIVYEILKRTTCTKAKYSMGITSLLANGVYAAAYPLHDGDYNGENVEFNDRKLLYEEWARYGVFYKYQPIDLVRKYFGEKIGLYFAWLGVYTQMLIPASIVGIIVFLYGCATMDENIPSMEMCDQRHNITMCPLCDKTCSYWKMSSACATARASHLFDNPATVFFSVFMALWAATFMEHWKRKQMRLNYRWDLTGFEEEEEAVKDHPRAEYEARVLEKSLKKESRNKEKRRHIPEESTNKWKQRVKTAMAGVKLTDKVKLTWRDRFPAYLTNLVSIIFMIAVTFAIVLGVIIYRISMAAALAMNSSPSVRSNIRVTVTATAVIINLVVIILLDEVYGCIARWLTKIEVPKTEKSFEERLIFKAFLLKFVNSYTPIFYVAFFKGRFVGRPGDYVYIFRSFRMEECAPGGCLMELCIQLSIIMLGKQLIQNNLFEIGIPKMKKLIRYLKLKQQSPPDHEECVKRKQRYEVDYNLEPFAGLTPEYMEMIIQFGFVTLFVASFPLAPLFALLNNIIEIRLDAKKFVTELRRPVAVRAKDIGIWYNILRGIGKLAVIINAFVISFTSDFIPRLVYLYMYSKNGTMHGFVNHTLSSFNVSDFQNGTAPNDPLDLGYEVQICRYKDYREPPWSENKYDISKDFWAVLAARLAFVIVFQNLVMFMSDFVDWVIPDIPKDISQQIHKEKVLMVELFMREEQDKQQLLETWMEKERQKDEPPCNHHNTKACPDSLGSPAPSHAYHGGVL
Experiment: Automated whole-cell patch clamp (QPatch) TMEM16A potentiator assay in FRT cells stably expressing human TMEM16A
Format: cell-based
Conditions: for QPatch TMEM16A % Potentiation @ 370 nM: 370 nM test compound; for QPatch TMEM16A % Potentiation @ 370 nM / QPatch TMEM16A % Potentation @ 3.3 μM: percentage increase of baseline TMEM16A current; for QPatch TMEM16A % Potentation @ 3.3 μM: 3.3 μM test compound; for EC50: FRT-TMEM16A cells, whole-cell patch clamp, peak current at +70 mV, intracellular calcium at EC20
Method: Fisher rat thyroid (FRT) cells stably expressing human TMEM16A (TMEM16Aabc variant; Dr Luis Galietta, Insituto Giannina, Italy) were cultured in T-75 flasks in Hams F-12 media with Coon's modification (Sigma) supplemented with 10% (v/v) foetal bovine serum, penicillin-streptomycin (10,000 U/mL/10000 μg/mL), G-418 (750 μg/mL), L-glutamine (2 mM) and sodium bicarbonate solution (7.5% v/v). At ˜90% confluence cells were harvested for experiments by detachment with a 2:1 (v/v) mixture of Detachin (BMS Biotechnology) and 0.25% (w/v) trypsin-EDTA.
FRT-TMEM16A cells were whole-cell patch clamped using an automated planar patch clamp system (Qpatch, Sophion). Briefly, once high resistance (GOhm) seals were established between the cells and the planar recording array the patch was ruptured using suction pulses to establish the whole-cell recording configuration of the patch clamp technique. The assay employed the following solutions (all reagents Sigma): Intracellular solution (mM): N-methyl-D-glucamine 130, CaCl2 18.2, MgCl2 1, HEPES 10, EGTA 10, BAPTA 20, Mg-ATP 2, pH 7.25, 325 mOsm with sucrose.
Extracellular solution (mM): N-methyl-D-glucamine 130, CaCl2 2, MgCl2 1, HEPES 10, pH 7.3, 320 mOsm with sucrose.
The intracellular solution buffers intracellular calcium at levels required to give ˜20% activation of the maximal TMEM16A mediated current (EC20 for calcium ions). Cells were voltage clamped at a holding potential of −70 mV and a combined voltage step (to +70 mV)/ramp (−90 my to +90 mV) was applied at 0.05 Hz. After a period of current stabilisation test compounds, solubilised in 100% (v/v) DMSO and subsequently diluted into extracellular solution, were applied to generate a cumulative concentration response curve. Each concentration of test compound was incubated for 5 minutes before addition of the next concentration. After the final concentration was tested a supramaximal concentration of either a known active positive modulator or the TMEM16A inhibitor, CaCCinhA01 (Del La Fuente et al, 2008) was added to define the upper and lower limits of the assay.
Compound activity was quantified by measuring the increase in current upon compound addition and expressing this as a percentage increase of baseline TMEM16A current level.
In FIG. 1, IBL equals baseline current, I[#1] equals the peak current during test compound concentration 1 incubation period and so on.
Peak TMEM16A current at +70 mV was plotted as a function of time over the assay period. Baseline current (IBL) was measured after a period of stabilisation. The increase in current for each compound addition was determined by taking the peak current during the incubation period and subtracting the current from the previous recording period and then expressing this as a percentage of the baseline current (% potentiation). For test compound concentration 1 in FIG. 1 this is: (I[#1]−IBL/IBL)×100 For each additional concentration tested the increase in current was determined by subtracting the current from the previous incubation period and normalising the baseline value—for test concentration 2 in FIG. 1 this is: (I[#2]−I[#1])/IBL)×100 The values for each test concentration were plotted as a cumulative function of concentration eg. for test concentration two this would be the sum of the peak changes measured during concentration one plus concentration two.

Row | Compound | QPatch TMEM16A % Potentiation @ 370 nM [%] | QPatch TMEM16A % Potentation @ 3.3 μM [%] | EC50 [nM] | EC50 compared with Compound B (indole compounds versus comparator Compound B) | maximum potentiation of TMEM16A compared with Compound B (versus comparator Compound B)
1 | C#CC(C)(C)NC(=O)c1cc(NC(=O)Cc2cccc3[nH]ncc23)ccn1 [Compound A, reference compound] | 43 | 223 | 1930 | – | –
2 | C#CC(C)(C)NC(=O)c1cc(NC(=O)Cc2ccc3cc[nH]c3c2)ccn1 [Example 1, N-(1,1-Dimethylprop-2-ynyl)-4-[[2-(1H-indol-6-yl)acetyl]amino]pyridine-2-carboxamide] | 50 | 38 | 20 | lower EC50 values than Compound B | –
3 | O=C(Cc1ccc2cc[nH]c2c1)Nc1ccnc(C(=O)NC2(C(F)(F)F)CC2)c1 [Example 1.1, 4-[[2-(1H-indol-6-yl)acetyl]amino]-N-[1-(trifluoromethyl)cyclopropyl]pyridine-2-carboxamide] | 145 | 173 | 70 | – | improved maximum potentiation of TMEM16A
4 | CC(C)(C)NC(=O)c1cc(NC(=O)Cc2ccc3cn[nH]c3c2)ccn1 [Example 2, N-tert-Butyl-4-[[2-(1H-indazol-6-yl)acetyl]amino]pyridine-2-carboxamide] | 87 | 131 | 180 | – | –
5 | C#CC(C)(C)NC(=O)c1cc(NC(=O)Cc2ccc3cn[nH]c3c2)ccn1 [Example 3, N-(1,1-Dimethylprop-2-ynyl)-4-[[2-(1H-indazol-6-yl)acetyl]amino]pyridine-2-carboxamide] | 68 | 96 | 20 | – | –
6 | C#CC1(NC(=O)c2cc(NC(=O)Cc3ccc4cn[nH]c4c3)ccn2)CCCC1 [Example 4, N-(1-Ethynylcyclopentyl)-4-[[2-(1H-indazol-6-yl)acetyl]amino]pyridine-2-carboxamide] | 96 | 237 | 10 | – | –
7 | CC(C)(NC(=O)c1cc(NC(=O)Cc2ccc3cn[nH]c3c2)ccn1)C(F)(F)F [Example 4.1, 4-[[2-(1H-Indazol-6-yl)acetyl]amino]-N-(2,2,2-trifluoro-1,1-dimethyl-ethyl)pyridine-2-carboxamide] | 96 | 118 | 90 | – | –
8 | O=C(Cc1ccc2cn[nH]c2c1)Nc1ccnc(C(=O)NC2(C(F)(F)F)CC2)c1 [Example 4.2, 4-[[2-(1H-Indazol-6-yl)acetyl]amino]-N-[1-(trifluoromethyl)cyclopropyl]pyridine-2-carboxamide] | 112 | 155 | 100 | – | –
9 | CC1(NC(=O)c2cc(NC(=O)Cc3ccc4cn[nH]c4c3)ccn2)CC(F)(F)C1 [Example 4.3, N-(3,3-Difluoro-1-methyl-cyclobutyl)-4-[[2-(1H-indazol-6-yl)acetyl]amino]pyridine-2-carboxamide] | 173 | 226 | 50 | – | –
10 | CC(C)(NC(=O)c1cc(NC(=O)Cc2ccc3cn[nH]c3c2)ccn1)C(F)F [Example 5, N-(2,2-Difluoro-1,1-dimethyl-ethyl)-4-[[2-(1H-indazol-6-yl)acetyl]amino] pyridine-2-carboxamide] | 80 | 104 | 110 | – | –
11 | O=C(Cc1ccc2cn[nH]c2c1)Nc1ccnc(C(=O)NC2(C(F)(F)F)CCC2)c1 [Example 5.1, 4-[[2-(1H-Indazol-6-yl)acetyl]amino]-N-[1-(trifluoromethyl)cyclobutyl]pyridine-2-carboxamide] | 76 | 110 | 150 | – | –
12 | O=C(Cc1ccc2cn[nH]c2c1)Nc1ccnc(C(=O)NC2CCCC2(F)F)c1 (centres unmarked) [Example 5.3, N-(2,2-Difluorocyclopentyl)-4-[[2-(1H-indazol-6-yl)acetyl]amino]pyridine-2-carboxamide] | 69 | 113 | 250 | – | –
13 | CC(C)(C)NC(=O)c1cc(NC(=O)Cc2cc3[nH]ncc3cc2F)ccn1 [Example 6, N-tert-Butyl-4-[[2-(5-fluoro-1H-indazol-6-yl)acetyl]amino]pyridine-2-carboxamide] | 91 | 164 | 230 | – | –
14 | O=C(Cc1cc2[nH]ncc2cc1F)Nc1ccnc(C(=O)NC2(C(F)(F)F)CC2)c1 [Example 6.1, 4-[[2-(5-Fluoro-1H-indazol-6-yl)acetyl]amino]-N-[1-(trifluoromethyl)cyclopropyl]pyridine-2-carboxamide] | 107 | 153 | 140 | – | –
15 | O=C(Cc1cc2[nH]ncc2cc1F)Nc1ccnc(C(=O)NC2CCCC2(F)F)c1 (centres unmarked) [Example 6.2, N-(2,2-Difluorocyclopentyl)-4-[[2-(5-fluoro-1H-indazol-6-yl)acetyl]amino]pyridine-2-carboxamide] | 46 | 70 | 310 | – | –
16 | O=C(Cc1cc(Cl)c2cn[nH]c2c1)Nc1ccnc(C(=O)NC2(C(F)(F)F)CC2)c1 [Example 6.3, 4-[[2-(4-Chloro-1H-indazol-6-yl)acetyl]amino]-N-[1-(trifluoromethyl)cyclopropyl]pyridine-2-carboxamide] | 172 | 220 | 110 | – | –
